In patent publication US11739074B2, “Ras inhibitors” (Revolution Medicines, Inc., priority 2019, dated 2023):
Read-outs that look alike come from different tables or passages of the source.

Columns and labels:
Type in all cases: cell-based
[1] = test system: AsPC-1 (K-Ras G12D); experiment: Potency assay: pERK in AsPC-1 cells; details: Homo sapiens
[2] = test system: NCI-H358 (K-Ras G12C); experiment: CellTiter-Glo cell viability assay, H358; details: Homo sapiens, NCI-H358, 120 h
Experimental: Determination of Cell Viability in RAS Mutant Cancer Cell Lines
Protocol: CellTiter-Glo® Cell Viability Assay
Note—The following protocol describes a procedure for monitoring cell viability of K-Ras mutant cancer cell lines in response to a compound of the invention. Other RAS isoforms may be employed, though the number of cells to be seeded will vary based on cell line used.
Test compounds (132.5 nL) were directly dispensed into the assay plates containing cells. […] On day 5, assay plates and their contents were equilibrated to room temperature for approximately 30 minutes. […] Luminescence was measured using the PerkinElmer Enspire. Data were normalized by the following: (Sample signal/Avg. DMSO)*100. The data were fit using a four-parameter logistic fit.

[3] = test system: AsPC-1 (K-Ras G12D); experiment: CellTiter-Glo cell viability assay, AsPC-1; details: Homo sapiens, ASPC1, 120 h
Outline: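 Direct compound addition to plated cells; 5-day exposure; ~30 min RT equilibration; CellTiter-Glo luminescence. Normalization: (sample/avg DMSO)*100; 4-parameter logistic curve fit.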

[4] = ASPC1, read-out: pERK EC50 (AsPC-1 KRAS G12D)
[5] = read-out: H358 Cell Viability IC50, NCI-H358, K-Ras G12C, 5-day treatment
[6] = read-out: AsPC-1 Cell Viability IC50, AsPC-1, K-Ras G12D, 5-day treatment
[7] = ASPC1, AsPC-1 cells, K-Ras G12D, read-out: pERK EC50 (AsPC-1 KRAS G12D)
[8] = NCI-H358, K-Ras G12C, 5-day treatment, read-out: H358 Cell Viability IC50
[9] = AsPC-1, K-Ras G12D, 5-day treatment, read-out: AsPC-1 Cell Viability IC50

Row | SMILES | EC50 [1, 4] [nM] | IC50 [2, 5] [nM] | IC50 [3, 6] [nM] | EC50 [1, 7] [nM] | IC50 [2, 8] [nM] | IC50 [3, 9] [nM]
1 | CCn1c(-c2cccnc2[C@H](C)OC)c2c3cc(ccc31)-c1cc(O)cc(c1)C[C@H](NC(=O)[C@H](C(C)C)N(C)C(=O)CN(C)C(=O)[C@H]1CN1Cc1ccccc1F)C(=O)N1CCC[C@H](N1)C(=O)OCC(C)(C)C2 (stereo partly drawn) [Compound 155] | < 5000 | < 10 | 100 to 1000 | – | – | –
2 | CCn1c(-c2cccnc2[C@H](C)OC)c2c3cc(ccc31)-c1cc(O)cc(c1)C[C@H](NC(=O)[C@H](C(C)C)N(C)C(=O)CN(C)C(=O)[C@H]1CN1Cc1ccccc1CO)C(=O)N1CCC[C@H](N1)C(=O)OCC(C)(C)C2 (stereo partly drawn) [Compound 156] | < 5000 | < 10 | 100 to 1000 | – | – | –
3 | CCn1c(-c2cccnc2[C@H](C)OC)c2c3cc(ccc31)-c1cc(O)cc(c1)C[C@H](NC(=O)[C@H](C(C)C)N(C)C(=O)CN(C)C(=O)[C@@H]1CN1CCOC)C(=O)N1CCC[C@H](N1)C(=O)OCC(C)(C)C2 (stereo partly drawn) [Compound 160] | < 5000 | < 10 | 100 to 1000 | – | – | –
4 | CCn1c(-c2cccnc2[C@H](C)OC)c2c3cc(ccc31)-c1cc(O)cc(c1)C[C@H](NC(=O)[C@H](C(C)C)N(C)C(=O)[C@H]1CCCN(C(=O)[C@H]3CN3)C1)C(=O)N1CCC[C@H](N1)C(=O)OCC(C)(C)C2 [Compound 165] | – | – | – | < 5000 | < 10 | 1000 to 10000
5 | CCn1c(-c2cccnc2[C@H](C)OC)c2c3cc(ccc31)-c1csc(n1)C[C@H](NC(=O)[C@H](C(C)C)N(C)C(=O)N1CCN(C(=O)[C@@H]3CN3)CC1)C(=O)N1CCC[C@H](N1)C(=O)OCC(C)(C)C2 [Compound 168] | – | – | – | < 5000 | 10 to 100 | 100 to 1000
6 | CCn1c(-c2cccnc2[C@H](C)OC)c2c3cc(ccc31)-c1csc(n1)C[C@H](NC(=O)[C@H](C(C)C)N(C)C(=O)N1CCN(C(=O)[C@H]3CN3)CC1)C(=O)N1CCC[C@H](N1)C(=O)OCC(C)(C)C2 [Compound 169] | – | – | – | < 5000 | 10 to 100 | 100 to 1000
7 | CCn1c(-c2cccnc2[C@H](C)OC)c2c3cc(ccc31)-c1cc(O)cc(c1)C[C@H](NC(=O)[C@H](C1CCCC1)N(C)C(=O)CN(C)C(=O)[C@@H]1N[C@@H]1C1CC1)C(=O)N1CCC[C@H](N1)C(=O)OCC(C)(C)C2 [Compound 170] | – | – | – | < 5000 | 10 to 100 | 10 to 100
8 | CCn1c(-c2cccnc2[C@H](C)OC)c2c3cc(ccc31)-c1cc(O)cc(c1)C[C@H](NC(=O)[C@H](C(C)C)N(C)C(=O)[C@@]1(F)CCN(C(=O)[C@H]3CN3)C1)C(=O)N1CCC[C@H](N1)C(=O)OCC(C)(C)C2 [Compound 171] | – | – | – | < 5000 | < 10 | 100 to 1000
9 | CCn1c(-c2cccnc2[C@H](C)OC)c2c3cc(ccc31)-c1cc(O)cc(c1)C[C@H](NC(=O)[C@H](C1CCCC1)N1CC[C@@]3(CCN(C(=O)[C@H]4CN4)C3)C1=O)C(=O)N1CCC[C@H](N1)C(=O)OCC(C)(C)C2 [Compound 174] | – | – | – | < 5000 | < 10 | 100 to 1000
10 | CCn1c(-c2cccnc2[C@H](C)OC)c2c3cc(ccc31)-c1cc(O)cc(c1)C[C@H](NC(=O)[C@H](C(C)C)N(C)C(=O)[C@@H]1CCN(C(=O)[C@H]3CN3)C1)C(=O)N1CCC[C@H](N1)C(=O)OCC(C)(C)C2 [Compound 186] | – | – | – | < 5000 | < 10 | 100 to 1000
11 | CCn1c(-c2cccnc2[C@H](C)OC)c2c3cc(ccc31)-c1cc(O)cc(c1)C[C@H](NC(=O)[C@H](C(C)C)N(C)C(=O)CN(C)C(=O)[C@H]1CN1CCCOC)C(=O)N1CCC[C@H](N1)C(=O)OCC(C)(C)C2 (stereo partly drawn) [Compound 201] | < 5000 | < 10 | 100 to 1000 | – | – | –
12 | CCn1c(-c2cccnc2[C@H](C)OC)c2c3cc(ccc31)-c1cc(O)cc(c1)C[C@H](NC(=O)[C@H](C(C)C)N(C)C(=O)C13CCC(CC1)N3C(=O)[C@H]1CN1)C(=O)N1CCC[C@H](N1)C(=O)OCC(C)(C)C2 [Compound 202] | – | – | – | < 5000 | 100 to 1000 | 1000 to 10000
13 | CCn1c(-c2cccnc2[C@H](C)OC)c2c3cc(ccc31)-c1cc(O)cc(c1)C[C@H](NC(=O)[C@H](C(C)C)N(C)C(=O)[C@@H]1CCN(C(=O)[C@H]3CN3)[C@@H]1C)C(=O)N1CCC[C@H](N1)C(=O)OCC(C)(C)C2 [Compound 207] | – | – | – | < 5000 | < 10 | 100 to 1000
14 | CCn1c(-c2cccnc2[C@H](C)OC)c2c3cc(ccc31)-c1cc(O)cc(c1)C[C@H](NC(=O)[C@H](C(C)C)N(C)C(=O)[C@@H]1CCN(C(=O)[C@@H]3CN3)[C@@H]1C)C(=O)N1CCC[C@H](N1)C(=O)OCC(C)(C)C2 [Compound 208] | – | – | – | < 5000 | 10 to 100 | 1000 to 10000
15 | CCn1c(-c2cccnc2[C@H](C)OC)c2c3cc(ccc31)-c1csc(n1)C[C@H](NC(=O)[C@H](C1CCCC1)N(C)C(=O)CN(C)C(=O)[C@@H]1N[C@@H]1C1CC1)C(=O)N1CCC[C@H](N1)C(=O)OCC(C)(C)C2 [Compound 210] | – | – | – | < 5000 | 100 to 1000 | 100 to 1000
16 | CCn1c(-c2cccnc2[C@H](C)OC)c2c3cc(ccc31)-c1csc(n1)C[C@H](NC(=O)[C@H](C(C)C)N(C)C(=O)N(C)CCN(C)C(=O)[C@H]1CN1)C(=O)N1CCC[C@H](N1)C(=O)OCC(C)(C)C2 [Compound 216] | – | – | – | < 5000 | 10 to 100 | 100 to 1000
17 | CCn1c(-c2cccnc2[C@H](C)OC)c2c3cc(ccc31)-c1csc(n1)C[C@H](NC(=O)[C@H](C(C)C)N(C)C(=O)N(C)CCN(C)C(=O)[C@@H]1CN1)C(=O)N1CCC[C@H](N1)C(=O)OCC(C)(C)C2 [Compound 217] | – | – | – | < 5000 | 10 to 100 | 100 to 1000
18 | CCn1c(-c2cccnc2[C@H](C)OC)c2c3cc(ccc31)-c1csc(n1)C[C@H](NC(=O)[C@H](C(C)C)N(C)C(=O)N1CCCN(C(=O)[C@H]3CN3)CC1)C(=O)N1CCC[C@H](N1)C(=O)OCC(C)(C)C2 [Compound 222] | – | – | – | < 5000 | < 10 | 100 to 1000
19 | CCn1c(-c2cccnc2[C@H](C)OC)c2c3cc(ccc31)-c1csc(n1)C[C@H](NC(=O)[C@H](C(C)C)N(C)C(=O)N1CCCN(C(=O)[C@@H]3CN3)CC1)C(=O)N1CCC[C@H](N1)C(=O)OCC(C)(C)C2 [Compound 223] | – | – | – | < 5000 | 10 to 100 | 100 to 1000
20 | CCn1c(-c2cccnc2[C@H](C)OC)c2c3cc(ccc31)-c1csc(n1)C[C@H](NC(=O)[C@H](C(C)C)N(C)C(=O)N1CC(CN(C)C(=O)[C@H]3CN3)C1)C(=O)N1CCC[C@H](N1)C(=O)OCC(C)(C)C2 [Compound 224] | – | – | – | < 5000 | 10 to 100 | 100 to 1000
21 | CCn1c(-c2cccnc2[C@H](C)OC)c2c3cc(ccc31)-c1csc(n1)C[C@H](NC(=O)[C@H](C(C)C)N(C)C(=O)N1CC(CN(C)C(=O)[C@@H]3CN3)C1)C(=O)N1CCC[C@H](N1)C(=O)OCC(C)(C)C2 [Compound 225] | – | – | – | < 5000 | 10 to 100 | 100 to 1000
22 | CCn1c(-c2cccnc2[C@H](C)OC)c2c3cc(ccc31)-c1csc(n1)C[C@H](NC(=O)[C@H](C(C)C)N(C)C(=O)N1CC[C@@H](N(C)C(=O)[C@H]3CN3)C1)C(=O)N1CCC[C@H](N1)C(=O)OCC(C)(C)C2 [Compound 226] | – | – | – | < 5000 | 10 to 100 | 1000 to 10000
23 | CCn1c(-c2cccnc2[C@H](C)OC)c2c3cc(ccc31)-c1csc(n1)C[C@H](NC(=O)[C@H](C(C)C)N(C)C(=O)N1CC[C@@H](N(C)C(=O)[C@@H]3CN3)C1)C(=O)N1CCC[C@H](N1)C(=O)OCC(C)(C)C2 [Compound 227] | – | – | – | < 5000 | 10 to 100 | 1000 to 10000
24 | CCn1c(-c2cccnc2[C@H](C)OC)c2c3cc(ccc31)-c1csc(n1)C[C@H](NC(=O)[C@H](C(C)C)N(C)C(=O)N1CC[C@H](N(C)C(=O)[C@H]3CN3)C1)C(=O)N1CCC[C@H](N1)C(=O)OCC(C)(C)C2 [Compound 228] | – | – | – | < 5000 | 10 to 100 | 100 to 1000
25 | CCn1c(-c2cc(C3CCN(C)CC3)cnc2[C@H](C)OC)c2c3cc(ccc31)-c1cc(O)cc(c1)C[C@H](NC(=O)[C@H](C1CCCC1)N(C)C(=O)CN(C)C(=O)[C@H]1CN1)C(=O)N1CCC[C@H](N1)C(=O)OCC(C)(C)C2 [Compound 230] | – | – | – | < 5000 | 10 to 100 | 10 to 100
26 | CCn1c(-c2cccnc2[C@H](C)OC)c2c3cc(ccc31)-c1cc(O)cc(c1)C[C@H](NC(=O)[C@H](C(C)C)N(C)C(=O)[C@H]1CCCN(C(=O)[C@@H]3CN3)C1)C(=O)N1CCC[C@H](N1)C(=O)OCC(C)(C)C2 [Compound 236] | – | – | – | < 5000 | < 10 | 1000 to 10000
27 | CCn1c(-c2cccnc2[C@H](C)OC)c2c3cc(ccc31)-c1cc(O)cc(c1)C[C@H](NC(=O)[C@H](C(C)C)N(C)C(=O)[C@@]1(C)CCCN1C(=O)[C@H]1CN1)C(=O)N1CCC[C@H](N1)C(=O)OCC(C)(C)C2 [Compound 239] | – | – | – | < 5000 | 10 to 100 | 100 to 1000
